The record followed here is US11254668B2, “Pyrazolo[1,5-A]pyrazin-4-yl and related derivatives” (Pfizer Inc., priority 2017, dated 2022).

Structures are written as SMILES.

Holding throughout (format): biochemical
Conditions in all cases: JAK Caliper enzyme assay

One experiment deals with TYK2 (Homo sapiens (Human), UniProt P29597). As to the kind of experiment: JAK Caliper Enzyme Assay at 1 mM ATP, TYK2. An outline of the steps: (§1)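 Inhibition is measured as reduced phosphorylation of a synthetic peptide by the recombinant human kinase domain at 1 mM ATP. Conditions give 20–30% conversion at room temperature before EDTA quench, and on-chip separation of labelled substrate and product yields percent conversion for dose–response plotting.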
Chain of TYK2 (P29597 897-1176): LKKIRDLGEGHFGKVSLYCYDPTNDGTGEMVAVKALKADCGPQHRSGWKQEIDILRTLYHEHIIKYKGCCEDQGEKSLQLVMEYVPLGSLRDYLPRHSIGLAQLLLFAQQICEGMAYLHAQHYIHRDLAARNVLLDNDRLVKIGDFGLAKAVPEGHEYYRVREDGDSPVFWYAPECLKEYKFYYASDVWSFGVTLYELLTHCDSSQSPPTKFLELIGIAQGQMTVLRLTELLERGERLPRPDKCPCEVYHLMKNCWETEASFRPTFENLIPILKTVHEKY

For a further experiment, the target named is JAK1 (Homo sapiens (Human), UniProt P23458). Kind of experiment: JAK Caliper Enzyme Assay at 1 mM ATP, JAK1. The gist of the method:
(§2)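 Recombinant human kinase domains phosphorylate a fluorescent synthetic peptide at 1 mM ATP, room temperature, with enzyme and time tuned for 20-30% conversion; EDTA-stopped. Product/substrate separated by microfluidic mobility shift; percent effect versus DMSO and positive controls fitted to IC50 (nM).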

The next experiment concerns the target JAK2 (Homo sapiens (Human), UniProt O60674). As to the kind of experiment: JAK Caliper Enzyme Assay at 1 mM ATP, JAK2. An outline of the steps: as §1
For a further experiment, the target named is JAK3 (Homo sapiens (Human), UniProt P52333). As to the kind of experiment: JAK Caliper Enzyme Assay at 1 mM ATP, JAK3. An outline of the steps: as §2
Chain of JAK3 (P52333 822-1111): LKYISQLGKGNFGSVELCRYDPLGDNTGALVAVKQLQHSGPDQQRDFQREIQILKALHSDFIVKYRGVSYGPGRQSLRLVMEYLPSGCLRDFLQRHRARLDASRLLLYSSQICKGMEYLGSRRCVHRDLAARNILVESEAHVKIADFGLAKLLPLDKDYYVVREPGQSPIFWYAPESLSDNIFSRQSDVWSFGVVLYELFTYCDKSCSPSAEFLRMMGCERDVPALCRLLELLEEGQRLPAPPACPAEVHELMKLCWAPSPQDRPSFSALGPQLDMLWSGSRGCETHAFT

Chain of JAK2 (O60674 849-1124): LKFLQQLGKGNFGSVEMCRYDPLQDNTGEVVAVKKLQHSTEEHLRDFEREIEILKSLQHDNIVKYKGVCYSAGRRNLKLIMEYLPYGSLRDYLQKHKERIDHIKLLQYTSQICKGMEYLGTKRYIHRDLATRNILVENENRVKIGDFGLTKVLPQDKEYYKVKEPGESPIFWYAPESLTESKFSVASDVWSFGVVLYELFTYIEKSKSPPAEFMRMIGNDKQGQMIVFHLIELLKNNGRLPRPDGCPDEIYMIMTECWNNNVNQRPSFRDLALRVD
Chain of JAK1 (P23458 875-1153): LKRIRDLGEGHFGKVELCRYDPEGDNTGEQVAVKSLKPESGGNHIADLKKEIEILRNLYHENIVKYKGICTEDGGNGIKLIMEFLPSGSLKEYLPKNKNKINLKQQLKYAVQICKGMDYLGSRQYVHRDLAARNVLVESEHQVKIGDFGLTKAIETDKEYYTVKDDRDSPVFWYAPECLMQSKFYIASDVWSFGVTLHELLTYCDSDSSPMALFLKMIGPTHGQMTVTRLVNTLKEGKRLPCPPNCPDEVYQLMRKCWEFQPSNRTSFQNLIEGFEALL

Take `CS(=O)(=O)Nc1cccc(-c2cc(-c3cnn(C4(CC#N)CC(C#N)C4)n3)c3cccnc3c2)n1` (stereo not drawn) [Example 372, N-[6-(5-{2-[cis-3-cyano-1-(cyanomethyl)cyclobutyl]-2H-1,2,3-triazol-4-yl}quinolin-7-yl)pyridin-2-yl]methanesulfonamide]: the IC50 (as a rule, the concentration at which inhibition is half-maximal) at TYK2 is 21 nM; on JAK1, 600 nM; at JAK2 it was 80 nM; on JAK3 it was 5970 nM.
`CS(=O)(=O)Nc1cccc(-c2cc(-c3cnn(C4(CC#N)CC(C#N)C4)n3)c3cccnc3c2)n1` (stereo not drawn) [Example 373, N-[6-(5-{2-[trans-3-cyano-1-(cyanomethyl)cyclobutyl]-2H-1,2,3-triazol-4-yl}quinolin-7-yl)pyridin-2-yl]methanesulfonamide]: the IC50 on TYK2 was 69 nM; at JAK1 it was 4070 nM; at JAK2, 411 nM; on JAK3, above 10000 nM.
Regarding `CS(=O)(=O)Nc1ccc(-c2cc(-c3cnn(C4(CC#N)CC(C#N)C4)n3)c3cccnc3c2)nc1` (stereo not drawn) [Example 374, N-[6-(5-{2-[cis-3-cyano-1-(cyanomethyl)cyclobutyl]-2H-1,2,3-triazol-4-yl}quinolin-7-yl)pyridin-3-yl]methanesulfonamide], the IC50 at TYK2 stood at 9 nM; on JAK1, 53 nM; on JAK2 it was 25 nM; on JAK3, 2890 nM.
For `CS(=O)(=O)Nc1ccc(-c2cc(-c3cnn(C4(CC#N)CC(C#N)C4)n3)c3cccnc3c2)nc1` (stereo not drawn) [Example 375, N-[6-(5-{2-[trans-3-cyano-1-(cyanomethyl)cyclobutyl]-2H-1,2,3-triazol-4-yl}quinolin-7-yl)pyridin-3-yl]methanesulfonamide], the 50% inhibitory concentration (IC50) was 30 nM at TYK2, 452 nM at JAK1, 148 nM on JAK2 and above 10000 nM on JAK3.
As for `CC(=O)Nc1cccc(-c2cc(-c3cnn([C@]4(CC#N)C[C@@H](C#N)C4)n3)c3cccnc3c2)n1` [Example 376, N-[6-(5-{2-[trans-3-cyano-1-(cyanomethyl)cyclobutyl]-2H-1,2,3-triazol-4-yl}quinolin-7-yl)pyridin-2-yl]acetamide], the IC50 on TYK2 came out at 36 nM; on JAK1 it was 593 nM; on JAK2, 155 nM; at JAK3, 9480 nM.
As for `CC(=O)Nc1cccc(-c2cc(-c3cnn(C4(CC#N)CC(C#N)C4)n3)c3cccnc3c2)n1` (stereo not drawn) [Example 377, N-[6-(5-{2-[cis-3-cyano-1-(cyanomethyl)cyclobutyl]-2H-1,2,3-triazol-4-yl}quinolin-7-yl)pyridin-2-yl]acetamide], the concentration for half-maximal inhibition (IC50) at TYK2 was 14 nM; at JAK1 it was 73 nM; on JAK2, 33 nM; at JAK3 it was 1350 nM.
Regarding `Cc1nc(-c2cc(-c3cnn([C@]4(CC#N)C[C@H](C#N)C4)n3)c3cccnc3c2)ccc1CCO` [Example 378, cis-3-(cyanomethyl)-3-(4-{7-[5-(2-hydroxyethyl)-6-methylpyridin-2-yl]quinolin-5-yl}-2H-1,2,3-triazol-2-yl)cyclobutanecarbonitrile], the concentration for half-maximal inhibition (IC50) at TYK2 is 35 nM; on JAK1, 575 nM; at JAK2, 93 nM; at JAK3 it was 9500 nM.
Take `Cc1nc(-c2cc(-c3cnn([C@]4(CC#N)C[C@@H](C#N)C4)n3)c3cccnc3c2)ccc1CCO` [Example 379, trans-3-(cyanomethyl)-3-(4-{7-[5-(2-hydroxyethyl)-6-methylpyridin-2-yl]quinolin-5-yl}-2H-1,2,3-triazol-2-yl)cyclobutanecarbonitrile]: the IC50 on TYK2 is 123 nM; at JAK1, 4360 nM; at JAK2, 540 nM; on JAK3, above 10000 nM.
Taken in the same sequence, the figures for `N#CC[C@]1(n2ncc(-c3cc(-c4cc5c(cn4)CCN5)cc4ncccc34)n2)C[C@@H](C#N)C1` [Example 380, cis-3-(cyanomethyl)-3-{4-[7-(2,3-dihydro-1H-pyrrolo[3,2-c]pyridin-6-yl)quinolin-5-yl]-2H-1,2,3-triazol-2-yl}cyclobutanecarbonitrile] were 194 nM, 9390 nM, 811 nM and above 10000 nM.
Take `Cc1nc(-c2cc(-c3cnn([C@]4(CC#N)C[C@H](C#N)C4)n3)c3cccnc3c2)ccc1O` [Example 381, cis-3-(cyanomethyl)-3-{4-[7-(5-hydroxy-6-methylpyridin-2-yl)quinolin-5-yl]-2H-1,2,3-triazol-2-yl}cyclobutanecarbonitrile]: the IC50 at TYK2 is 30 nM; at JAK1, 432 nM; at JAK2 it was 138 nM; on JAK3 it was above 10000 nM.
`Cc1nc(-c2cc(-c3cnn([C@]4(CC#N)C[C@@H](C#N)C4)n3)c3cccnc3c2)ccc1O` [Example 382, trans-3-(cyanomethyl)-3-{4-[7-(5-hydroxy-6-methylpyridin-2-yl)quinolin-5-yl]-2H-1,2,3-triazol-2-yl}cyclobutanecarbonitrile]: the concentration for half-maximal inhibition (IC50) at TYK2 is 141 nM; at JAK1, 3060 nM; at JAK2, 1020 nM; at JAK3, above 10000 nM.
In the case of `COc1nc(-c2cc(-c3cnn([C@]4(CC#N)C[C@H](C#N)C4)n3)c3cccnc3c2)ccc1N` [Example 383, cis-3-{4-[7-(5-amino-6-methoxypyridin-2-yl)quinolin-5-yl]-2H-1,2,3-triazol-2-yl}-3-(cyanomethyl)cyclobutanecarbonitrile], the concentration for half-maximal inhibition (IC50) was determined as 7 nM on TYK2, 59 nM on JAK1, 35 nM at JAK2 and 4250 nM on JAK3.
Taken in the same sequence, the figures for `COc1nc(-c2cc(-c3cnn([C@]4(CC#N)C[C@@H](C#N)C4)n3)c3cccnc3c2)ccc1N` [Example 384, trans-3-{4-[7-(5-amino-6-methontpyridin-2-yl)quinolin-5-yl]-2H-1,2,3-triazol-2-yl}-3-(cyanomethyl)cyclobutanecarbonitrile] were 33 nM, 769 nM, 256 nM and above 10000 nM.
With `N#CC[C@]1(n2ncc(-c3cc(-c4cc(C(N)=O)c(F)cn4)cc4ncccc34)n2)C[C@H](C#N)C1` [Example 385, 2-(5-{2-[cis-3-cyano-1-(cyanomethyl)cyclobutyl]-2H-1,2,3-triazol-4-yl}quinolin-7-yl)5-fluoropyridine-4-carboxamide], the IC50 was 984 nM on TYK2, 6270 nM at JAK1, 6780 nM at JAK2 and above 10000 nM on JAK3.
As for `N#CC[C@]1(n2ncc(-c3cc(-c4cc(C(N)=O)c(F)cn4)cc4ncccc34)n2)C[C@@H](C#N)C1` [Example 386, 2-(5-{2-[trans-3-cyano-1-(cyanomethyl)cyclobutyl]-2H-1,2,3-triazol-4-yl}quinolin-7-yl)-5-fluoropyridine-4-carboxamide], the IC50 on TYK2 is 3760 nM; at JAK1 it was above 10000 nM; at JAK2, above 10000 nM; at JAK3 it was above 10000 nM.
In the case of `N#CC[C@]1(n2ncc(-c3cc(-c4cc(O)ncc4F)cc4ncccc34)n2)C[C@@H](C#N)C1` [Example 387, cis-3-(cyanomethyl)-3-{4-[7-(5-fluoro-2-hydroxpyridin-4-yl)quinolin-5-yl]-2H-1,2,3-triazol-2-yl}cyclobutanecarbonitrile], the IC50 was 4840 nM at TYK2, above 10000 nM at JAK1, above 10000 nM at JAK2 and above 10000 nM on JAK3.
For `Cc1cc(-c2cc(-c3cnn(C4(CC#N)CN(S(C)(=O)=O)C4)n3)c3cccnc3c2)cnc1N` [Example 388, [3-{4-[7-(6-amino-5-methylpyridin-3-yl)quinolin-5-yl]-2H-1,2,3-triazol-2-yl}-1-(methylsulfonyl)azetidin-3-yl]acetonitrile], the IC50 at TYK2 is 1780 nM; on JAK1, above 10000 nM; at JAK2, 6880 nM; at JAK3, above 10000 nM.
Consider `CS(=O)(=O)N1CC(CC#N)(n2ncc(-c3cc(-c4cncnc4)cc4ncccc34)n2)C1` [Example 389, [1-(methylsulfonyl)-3-{4-[7-(pyrimidin-5-yl)quinolin-5-yl]-2H-1,2,3-triazol-2-yl}azetidin-3-yl]acetonitrile], for which the IC50 on TYK2 was 5040 nM; at JAK1, above 10000 nM; at JAK2, above 10000 nM; on JAK3 it was above 10000 nM.
Consider `N#CCC1(n2ncc(-c3cc(-c4ncccn4)cc4ncccc34)n2)CC(C#N)C1` (stereo not drawn) [Example 390, trans-3-(cyanomethyl)-3-{4-[7-(pyrimidin-2-yl)quinolin-5-yl]-2H-1,2,3-triazol-2-yl}cyclobutanecarbonitrile], for which the IC50 on TYK2 is 1280 nM; on JAK1, above 10000 nM; on JAK2, above 10000 nM; at JAK3, above 10000 nM.
Regarding `N#CC[C@]1(n2ncc(-c3cc(-c4cncnc4)cc4ncccc34)n2)C[C@@H](C#N)C1` [Example 391, cis-3-(cyanomethyl)-3-{4-[7-(pyrimidin-5-yl)quinolin-5-yl]-2H-1,2,3-triazol-2-yl}cyclobutanecarbonitrile], the half-maximal inhibitory concentration (IC50) at TYK2 is 2840 nM; on JAK1, above 10000 nM; on JAK2, 9840 nM; at JAK3, above 10000 nM.
Turning to `N#CC[C@]1(n2ncc(-c3cc(-c4cnccn4)cc4ncccc34)n2)C[C@@H](C#N)C1` [Example 392, cis-3-(cyanomethyl)-3-{4-[7-(pyrazin-2-yl)quinolin-5-yl]-2H-1,2,3-triazol-2-yl}cyclobutanecarbonitrile], the IC50 on TYK2 was 660 nM; on JAK1, 7110 nM; at JAK2, 3050 nM; at JAK3, above 10000 nM.
